In patent US9834554B2, “BTK inhibitors” (MERCK SHARP & DOHME CORP., priority 2013, dated 2017):
Like-named read-outs stand apart in the source and are kept apart here.

Biological target: BTK enzyme (recombinant full-length BTK, hBTK) (Homo sapiens (Human), UniProt Q06187)
Assay: Btk enzyme activity assay, LANCE TR-FRET
[1] = read-out: BTK binding IC50, 50 pM hBTK, 2 μM biotin-A5-peptide, 25 μM ATP, 60 minute compound & enzyme incubation

BTK enzyme (recombinant full-length BTK, hBTK), sequence (Q06187 whole entry): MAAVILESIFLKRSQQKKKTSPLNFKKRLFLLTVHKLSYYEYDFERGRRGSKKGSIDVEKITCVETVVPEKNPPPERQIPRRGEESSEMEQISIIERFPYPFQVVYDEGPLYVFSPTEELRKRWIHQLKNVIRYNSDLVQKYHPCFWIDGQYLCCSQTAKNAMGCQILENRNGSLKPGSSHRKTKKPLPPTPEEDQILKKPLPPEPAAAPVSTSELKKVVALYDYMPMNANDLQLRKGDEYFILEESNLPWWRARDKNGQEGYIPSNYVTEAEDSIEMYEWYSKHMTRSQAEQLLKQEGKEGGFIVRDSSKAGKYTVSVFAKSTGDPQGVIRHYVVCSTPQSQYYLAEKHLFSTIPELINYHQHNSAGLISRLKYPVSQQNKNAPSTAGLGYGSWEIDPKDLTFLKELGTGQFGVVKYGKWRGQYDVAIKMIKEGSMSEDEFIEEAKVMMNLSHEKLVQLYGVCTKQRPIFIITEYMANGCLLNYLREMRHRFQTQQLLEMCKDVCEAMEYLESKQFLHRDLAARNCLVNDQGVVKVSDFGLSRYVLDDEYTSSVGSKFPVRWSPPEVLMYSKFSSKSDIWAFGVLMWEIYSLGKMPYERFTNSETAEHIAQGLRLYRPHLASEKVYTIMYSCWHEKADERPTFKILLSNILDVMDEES
Protocol: Also BTK enzymatic activity was determined with the LANCE (Lanthanide Chelate Excite) TR-FRET (Time-resolved fluorescence resonance energy transfer) assay. […] Phosphorylation reactions were allowed to proceed for 120 minutes. […] After 60 minutes incubation with detection reagents, reaction plates were read on a PerkinElmer EnVision plate reader using standard TR-FRET protocol. Briefly, excitation of donor molecules (Eu-chelate:anti-phospho-antibody) with a laser light source at 337 nm produces energy that can be transferred to Dylight-650 acceptor molecules if this donor:acceptor pair is within close proximity. Fluorescence intensity at both 665 nm (acceptor) and 615 nm (donor) are measured and a TR-FRET ratio calculated for each well (acceptor intensity/donor intensity).
Btk Enzyme Activity Assay Method
BTK enzymatic activity was determined with the LANCE (Lanthanide Chelate Excite) TR-FRET (Time-resolved fluorescence resonance energy transfer) assay. […] Phosphorylation reactions were allowed to proceed for 120 minutes. […] After 60 minutes incubation with detection reagents, reaction plates were read on a PerkinElmer EnVision plate reader using standard TR-FRET protocol. Briefly, excitation of donor molecules (Eu-chelate:anti-phospho-antibody) with a laser light source at 337 nm produces energy that can be transferred to Dylight-650 acceptor molecules if this donor:acceptor pair is within close proximity. Fluorescence intensity at both 665 nm (acceptor) and 615 nm (donor) are measured and a TR-FRET ratio calculated for each well (acceptor intensity/donor intensity).

SMILES	IC50 [1] [nM]	IC50 [nM]
Cc1noc(C)c1C(=O)N1CCC[C@@H](c2nn(-c3ccc(C(=O)Nc4cc(C(F)(F)F)ccn4)cc3)c3c(N)nccc23)C1 [Example 15, 4-(7-amino-3-{(3R)-1-[(3,5-dimethylisoxazol-4-yl)carbonyl]piperidin-3-yl}-1H-pyrazolo[3,4-c]pyridin-1-yl)-N-[4-(trifluoromethyl)pyridin-2-yl]benzamide]	5.3	–
COc1ccnc(NC(=O)c2ccc(-n3nc([C@@H]4CCCN(C(=O)C5(C)COC5)C4)c4ccnc(N)c43)cc2)c1 [Example 28, (R)-4-(7-amino-3-(1-(3-methyloxetane-3-carbonyl)piperidin-3-yl)-1H-pyrazolo[3,4-c]pyridin-1-yl)-N-(4-methoxypyridin-2-yl)benzamide 2,2,2-trifluoroacetate]	0.49	–
Nc1nccc2c([C@@H]3CCCN(C(=O)C4(O)CC4)C3)nn(-c3ccc(C(=O)Nc4cc(C(F)(F)F)ccn4)cc3)c12 [Example 25, 4-(7-amino-3-{(3R)-1-[(1-hydroxycyclopropyl)carbonyl]piperidin-3-yl}-1H-pyrazolo[3,4-c]pyridin-1-yl)-N-[4-(trifluoromethyl)pyridin-2-yl]benzamide]	0.59	–
Nc1nccc2c([C@@H]3CC[C@H]4CCC(=O)N4C3)nn(-c3ccc(C(=O)Nc4cc(C(F)(F)F)ccn4)cc3)c12 [Example 38, 4-{7-amino-3-[(6R,8aS)-3-oxooctahydroindolizin-6-yl]-1H-pyrazolo[3,4-c]pyridin-1-yl}-N-[4-(trifluoromethyl)pyridin-2-yl]benzamide]	–	0.17
COc1ccnc(NC(=O)c2ccc(-n3nc([C@@H]4CCCN(C(=O)C(C)(CO)CO)C4)c4ccnc(N)c43)cc2)c1 [Example 29, (R)-4-(7-amino-3-(1-(3-hydroxy-2-(hydroxymethyl)-2-methylpropanoyl)piperidin-3-yl)-1H-pyrazolo[3,4-c]pyridin-1-yl)-N-(4-methoxypyridin-2-yl)benzamide 2,2,2-trifluoroacetate]	1.6	–
COCCC(=O)N1CCC[C@@H](c2nn(-c3ccc(C(=O)Nc4cc(C(F)(F)F)ccn4)cc3)c3c(N)nccc23)C1 [Example 16, 4-{7-amino-3-[(3R)-1-(3-methoxypropanoyl)piperidin-3-yl]-1H-pyrazolo[3,4-c]pyridin-1-yl}-N-[4-(trifluoromethyl)pyridin-2-yl]benzamide]	0.51	–
Cc1n[nH]cc1C(=O)N1CCC[C@@H](c2nn(-c3ccc(C(=O)Nc4cc(C(F)(F)F)ccn4)cc3)c3c(N)nccc23)C1 [Example 10, 4-(7-amino-3-{(3R)-1-[(3-methyl-1H-pyrazol-4-yl)carbonyl]piperidin-3-yl}-1H-pyrazolo[3,4-c]pyridin-1-yl)-N-[4-(trifluoromethyl)pyridin-2-yl]benzamide]	0.71	–
COCC(=O)N1CCO[C@@H](c2nn(-c3ccc(C(=O)Nc4cc(OC)ccn4)cc3)c3c(N)nccc23)C1 [Example 7, 4-{7-amino-3-[(2R)-4-(methoxyacetyl)morpholin-2-yl]-1H-pyrazolo[3,4-c]pyridin-1-yl}-N-(4-methoxypyridin-2-yl)benzamide]	25.2	–
N#CC1(C(=O)N2CCC[C@@H](c3nn(-c4ccc(C(=O)Nc5cc(C(F)(F)F)ccn5)cc4)c4c(N)nccc34)C2)CC1 [Example 27, 4-(7-amino-3-{(3R)-1-[(1-cyanocyclopropyl)carbonyl]piperidin-3-yl}-1H-pyrazolo[3,4-c]pyridin-1-yl)-N-[4-(trifluoromethyl)pyridin-2-yl]benzamide]	–	2.2
COCC(=O)N1CCO[C@@H](c2nn(-c3ccc(C(=O)Nc4cc(C(F)(F)F)ccn4)cc3)c3c(N)nccc23)C1 [Example 5, 4-{7-amino-3-[(2R)-4-(methoxyacetyl)morpholin-2-yl]-1H-pyrazolo[3,4-c]pyridin-1-yl}-N-[4-(trifluoromethyl)pyridin-2-yl]benzamide]	3.7	–
C[C@@H](O)C(=O)N1C[C@H](c2nn(-c3ccc(C(=O)Nc4cccc(OC5CC5)c4)cc3)c3c(N)nccc23)CC[C@@H]1C [Example 36, 4-(7-amino-3-((3R,6S)-1-((R)-2-hydroxypropanoyl)-6-methylpiperidin-3-yl)-1H-pyrazolo[3,4-c]pyridin-1-yl)-N-(3-cyclopropoxyphenyl)benzamide]	30.4	–
CC1(C(=O)N2CCC[C@@H](c3nn(-c4ccc(C(=O)Nc5cc(C(F)(F)F)ccn5)cc4)c4c(N)nccc34)C2)COC1 [Example 9, (R)-4-(7-amino-3-(1-(3-methyloxetane-3-carbonyl)piperidin-3-yl)-1H-pyrazolo[3,4-c]pyridin-1-yl)-N-(4-(trifluoromethyl)pyridin-2-yl)benzamide]	0.47	–
COCC(=O)Nc1nccc2c([C@H]3CN(C(=O)COC)CCO3)nn(-c3ccc(C(=O)Nc4cc(C(F)(F)F)ccn4)cc3)c12 [Example 4, 4-{7-[(methoxyacetyl)amino]-3-[(2R)-4-(methoxyacetyl)morpholin-2-yl]-1H-pyrazolo[3,4-c]pyridin-1-yl}-N-[4-(trifluoromethyl)pyridin-2-yl]benzamide]	46.5	–
COc1cc(C(=O)Nc2cc(C(F)(F)F)ccn2)ccc1-n1nc([C@@H]2CC[C@H]3CCC(=O)N3C2)c2ccnc(N)c21 [Example 40, 4-{7-amino-3-[(6R,8aS)-3-oxooctahydroindolizin-6-yl]-1H-pyrazolo[3,4-c]pyridin-1-yl}-3-methoxy-N-[4-(trifluoromethyl)pyridin-2-yl] benzamide]	1.1	–
